# According to patent US20230250096A1, “SUBSTITUTED PHENYL-1H-PYRROLO[2,3-c] PYRIDINE DERIVATIVES” (Janssen Pharmaceutica NV, priority 2021, published 2023):
# Biological target: T1, menin/MLL (terbium chelate-labeled menin, FITC-MBM1 peptide) (Homo sapiens, UniProt O00255, T541A)
# T1 construct: Menin (a.a 1-610-6xhis tag, 2.3 mg/mL in 20 mM Hepes)
# T1 sequence (O00255 with tags, fused parts or gaps T541A): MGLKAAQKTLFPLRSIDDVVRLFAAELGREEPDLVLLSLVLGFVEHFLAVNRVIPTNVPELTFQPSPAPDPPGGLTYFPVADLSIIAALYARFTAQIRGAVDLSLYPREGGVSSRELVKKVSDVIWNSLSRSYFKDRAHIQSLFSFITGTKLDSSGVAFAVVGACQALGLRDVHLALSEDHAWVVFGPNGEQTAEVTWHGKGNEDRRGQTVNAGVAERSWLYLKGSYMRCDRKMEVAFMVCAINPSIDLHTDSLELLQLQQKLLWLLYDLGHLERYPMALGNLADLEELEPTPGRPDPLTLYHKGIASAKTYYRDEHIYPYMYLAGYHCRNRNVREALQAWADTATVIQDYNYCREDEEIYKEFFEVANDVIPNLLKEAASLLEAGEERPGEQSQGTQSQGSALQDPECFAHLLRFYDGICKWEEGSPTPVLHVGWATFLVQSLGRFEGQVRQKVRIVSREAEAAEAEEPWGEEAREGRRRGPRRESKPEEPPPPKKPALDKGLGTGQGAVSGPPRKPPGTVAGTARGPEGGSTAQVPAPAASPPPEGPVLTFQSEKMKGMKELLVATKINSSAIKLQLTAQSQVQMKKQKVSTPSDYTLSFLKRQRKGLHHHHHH
# Assay: Menin/MLL homogenous time-resolved fluorescence (HTRF) assay
# Assay type: binding
# Settings: 30 min incubation
# Outline: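 Competition binding read by time-resolved FRET (FITC 520 nm over terbium 490 nm) after compound meets labeled menin 1-610-His […] for 30 min, then FITC-MBM1 (75 nM) for 15 min, ambient temperature, 0.5% DMSO. Eleven-point four-fold dilutions, usually starting at 10 μM, fitted to four-parameter curves for IC50.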
row,SMILES,IC50
1,CCN(C(=O)c1cc(F)ccc1-n1cc(CC2CN(C(C(C)C)[C@H]3C[C@@H](N4C[C@H]5CN(C(C)=O)C[C@@H]5C4)C3)C2)c2c(C)cncc21)C(C)C (mixture of isomers) [Compound 38a],0.036 nM
2,Cc1cncc2c1c(C[C@H]1CCN(C(C)C3CCOCC3)C1)cn2-c1ccc(F)cc1C(=O)N(C)C(C)C (mixture of isomers) [Compound 49],0.048 nM
3,"CC(=O)N1CCN([C@H]2C[C@@H]([C@@H](C(C)C)N3CC(Cc4cn(-c5ccc(F)cc5C(=O)N(C)C(C)C)c5cncc(C)c45)C3)C2)CC1 (single isomer, unassigned) [Compound 32a]",0.062 nM
4,"CC(=O)N1C[C@@H]2CN([C@H]3C[C@@H]([C@@H](C(C)C)N4CC(Cc5cn(-c6ccc(F)cc6C(=O)N(C)C(C)C)c6cncc(Cl)c56)C4)C3)C[C@H]2C1 (single isomer, unassigned) [Compound 39a]",0.034 nM
5,"Cc1cncc2c1c(C[C@@H]1CCN(CC3CCOCC3)C1)cn2-c1ccc(F)cc1C(=O)N(C)C(C)C (single isomer, unassigned) [Compound 42]",0.03 nM
6,"Cc1cncc2c1c(C[C@H]1CCN(CC3CCOCC3)C1)cn2-c1ccc(F)cc1C(=O)N(C)C(C)C (single isomer, unassigned) [Compound 43]",0.027 nM
7,"Cc1cncc2c1c(C[C@@H]1CCN(CC(C)C)C1)cn2-c1ccc(F)cc1C(=O)N(C)C(C)C (single isomer, unassigned) [Compound 44]",0.06 nM
8,"Cc1cncc2c1c(C[C@H]1CCN(CC(C)C)C1)cn2-c1ccc(F)cc1C(=O)N(C)C(C)C (single isomer, unassigned) [Compound 45]",0.054 nM
9,"Cc1cncc2c1c(C[C@H]1CCN([C@@H](C)C3CCOCC3)C1)cn2-c1ccc(F)cc1C(=O)N(C)C(C)C (single isomer, unassigned) [Compound 49b]",0.06 nM
10,"CC(=O)N1CCC(CN2CC[C@@H](Cc3cn(-c4ccc(F)cc4C(=O)N(C)C(C)C)c4cncc(C)c34)C2)CC1 (single isomer, unassigned) [Compound 50]",0.079 nM
11,"COCC(=O)N1CCC(CN2CCC(Cc3cn(-c4ccc(F)cc4C(=O)N(C)C(C)C)c4cncc(C)c34)C2)CC1 (single isomer, unassigned) [Compound 59]",0.054 nM
12,"Cc1cncc2c1c(CC1CCN(CC3CCN(C(=O)CC#N)CC3)C1)cn2-c1ccc(F)cc1C(=O)N(C)C(C)C (single isomer, unassigned) [Compound 60]",< 0.0095 nM
13,"Cc1cncc2c1c(C[C@H]1CCN(C[C@H]3CC[C@H](NS(C)(=O)=O)CC3)C1)cn2-c1ccc(F)cc1C(=O)N(C)C(C)C (single isomer, unassigned) [Compound 69]",0.049 nM
14,"CNC(=O)[C@H]1CC[C@H](CN2CCC(Cc3cn(-c4ccc(F)cc4C(=O)N(C)C(C)C)c4cncc(C)c34)C2)CC1 (single isomer, unassigned) [Compound 70]",0.114 nM
15,"CNC(=O)[C@H]1CC[C@H](CN2CCC(Cc3cn(-c4ccc(F)cc4C(=O)N(C)C(C)C)c4cncc(C)c34)C2)CC1 (single isomer, unassigned) [Compound 71]",0.202 nM
16,"Cc1cncc2c1c(C[C@@H]1CCN(CC3CCOCC3)C1)cn2-c1ccc(F)cc1C(=O)N(C[C@H](C)O)C(C)C (single isomer, unassigned) [Compound 365b]",0.081 nM
17,COCCN(C)CCCC(C(C)C)N1CC[C@@H](Cc2cn(-c3ccc(F)cc3C(=O)N(C)C(C)C)c3cncc(C)c23)C1 (some centres unmarked) [Compound 1],0.033 nM
18,Cc1cncc2c1c(CC1CN([C@@H](C(C)C)[C@H]3C[C@@H](N4CCC(S(C)(=O)=O)CC4)C3)C1)cn2-c1ccc(F)cc1C(=O)N(C)C(C)C [Compound 33a],0.07 nM
19,CCN(C(=O)c1cc(F)ccc1-n1cc(CC2CN(C(C(C)C)[C@H]3C[C@@H](N4CCN(S(C)(=O)=O)CC4)C3)C2)c2c(C)cncc21)C(C)C (some centres unmarked) [Compound 37a],0.126 nM
20,CC(C)C([C@H]1C[C@@H](N(C)C)C1)N1CC(Cc2cn(-c3ccc(F)cc3C(=O)N(C)C(C)C)c3cncc(Cl)c23)C1 (some centres unmarked) [Compound 41],0.202 nM
21,CC(=O)N1CCC(CN2CCC(Cc3cn(-c4ccc(F)cc4C(=O)N(C)C(C)C)c4cncc(C)c34)CC2)CC1 [Compound 58],0.135 nM
22,Cc1cncc2c1c(CC1CN(CC3CCOCC3)C1)cn2-c1ccc(F)cc1C(=O)N(C)C(C)C [Compound 61],0.132 nM
23,CC(=O)N1CCC(CN2CC(Cc3cn(-c4ccc(F)cc4C(=O)N(C)C(C)C)c4cncc(C)c34)C2)CC1 [Compound 63],0.176 nM
24,COCC(=O)N1CCC(CN2CC(Cc3cn(-c4ccc(F)cc4C(=O)N(C)C(C)C)c4cncc(C)c34)C2)CC1 [Compound 66],0.037 nM
25,Cc1cncc2c1c(CC1CN(CC3CCN(C(=O)CC#N)CC3)C1)cn2-c1ccc(F)cc1C(=O)N(C)C(C)C [Compound 67],~0.043 nM
26,Cc1cncc2c1c(C[C@@H]1CCN(CC3CCOCC3)C1)cn2-c1ccc(F)cc1C(=O)N(CCO)C(C)C [Compound 357],0.035 nM
